Test results as given in ChEMBL document CHEMBL5465560, “Selectivity Literature for EUbOPEN Chemogenomic Library” (2024).
Numbering of substitutions follows the chain as printed.

Key:
Details in all cases: at 10 µM
[1] = tested on: T1, Receptor-type tyrosine-protein kinase FLT3 (Homo sapiens), P36888 [D835Y]; test: (§1) Selectivity interaction (KinomeScan (DiscoverX)) EUB0000666a FLT3
T1 sequence (whole entry): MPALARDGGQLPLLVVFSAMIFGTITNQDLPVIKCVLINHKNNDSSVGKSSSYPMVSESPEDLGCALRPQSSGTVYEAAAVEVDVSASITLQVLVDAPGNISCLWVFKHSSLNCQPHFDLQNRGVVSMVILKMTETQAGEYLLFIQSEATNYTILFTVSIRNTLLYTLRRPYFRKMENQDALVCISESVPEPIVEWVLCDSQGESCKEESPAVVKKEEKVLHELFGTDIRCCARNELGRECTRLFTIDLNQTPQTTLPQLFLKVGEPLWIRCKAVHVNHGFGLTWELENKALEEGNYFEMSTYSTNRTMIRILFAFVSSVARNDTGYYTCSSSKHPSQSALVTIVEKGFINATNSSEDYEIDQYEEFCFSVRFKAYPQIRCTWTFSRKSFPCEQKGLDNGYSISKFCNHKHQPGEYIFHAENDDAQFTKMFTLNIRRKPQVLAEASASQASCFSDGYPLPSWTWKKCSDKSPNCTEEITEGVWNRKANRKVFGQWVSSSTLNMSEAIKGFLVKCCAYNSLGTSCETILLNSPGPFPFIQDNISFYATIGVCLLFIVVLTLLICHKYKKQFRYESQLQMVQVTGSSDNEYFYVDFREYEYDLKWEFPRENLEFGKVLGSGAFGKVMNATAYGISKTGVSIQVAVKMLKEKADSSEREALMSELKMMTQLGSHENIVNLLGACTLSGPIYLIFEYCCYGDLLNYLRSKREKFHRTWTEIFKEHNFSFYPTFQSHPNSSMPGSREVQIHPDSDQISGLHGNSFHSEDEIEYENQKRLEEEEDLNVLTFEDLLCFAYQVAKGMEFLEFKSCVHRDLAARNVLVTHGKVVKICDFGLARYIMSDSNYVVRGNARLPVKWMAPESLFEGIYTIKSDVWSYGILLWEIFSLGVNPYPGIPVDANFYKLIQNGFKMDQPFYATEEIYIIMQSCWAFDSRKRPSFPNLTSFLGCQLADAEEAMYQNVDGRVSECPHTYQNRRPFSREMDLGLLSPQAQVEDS

[2] = target: Receptor-type tyrosine-protein kinase FLT3 (Homo sapiens) (UniProt P36888); test: as §1
[3] = tested on: Receptor-type tyrosine-protein kinase FLT3 (Homo sapiens), P36888 [UNDEFINED MUTATION]; test: as §1
[4] = tested on: T2, Receptor-type tyrosine-protein kinase FLT3 (Homo sapiens), P36888 [N841I]; test: as §1
T2 sequence (whole entry): T1 sequence (whole entry) with Y835D, N841I

[5] = tested on: T3, Receptor-type tyrosine-protein kinase FLT3 (Homo sapiens), P36888 [R834Q]; test: as §1
T3 sequence (whole entry): T1 sequence (whole entry) with R834Q, Y835D

O=C(NOC[C@H](O)CO)c1ccc(F)c(F)c1Nc1ccc(I)cc1F
% of control [1]: 100%
% of control [2]: 82%
% of control [3]: 100%
% of control [4]: 78%
% of control [5]: 78%
